Test results: ChEMBL document CHEMBL5634112, “Synthesis and biological evaluation of fluoroquinolones containing a pyridoxine derivatives moiety” (Eur J Med Chem, 2023)
Converted amounts (≈) assume the structure as drawn.

Legend:
[1] = Cytotoxicity against human MSC assessed as reduction in cell viability incubated for 72 hrs by MTT assay; type: toxicity, cell-based; conditions: MSC cells
Escherichia coli [2] = assay: Antibacterial activity against Escherichia coli ATCC 25922 assessed as reduction in microbial growth incubated for 24 hrs by broth microdilution method; type: functional
Enterococcus faecalis = assay: Antibacterial activity against clinical isolate Enterococcus faecalis 1465 assessed as reduction in microbial growth incubated for 24 hrs by broth microdilution method; type: functional
[3] = test system: Staphylococcus epidermidis; assay: Antibacterial activity against clinical isolate Staphylococcus epidermidis assessed as reduction in microbial growth incubated for 24 hrs by broth microdilution method; type: functional
[4] = test system: Staphylococcus haemolyticus; assay: Antibacterial activity against clinical isolate Staphylococcus haemolyticus NKC 31/2 assessed as reduction in microbial growth incubated for 24 hrs by broth microdilution method; type: functional
Staphylococcus aureus [5] = assay: Antibacterial activity against clinical isolate methicillin resistant Staphylococcus aureus 4771 assessed as reduction in microbial growth incubated for 24 hrs by broth microdilution method; type: functional
Micrococcus luteus = assay: Antibacterial activity against clinical isolate Micrococcus luteus assessed as reduction in microbial growth incubated for 24 hrs by broth microdilution method; type: functional
[6] = Cytotoxicity against human CHL assessed as reduction in cell viability incubated for 72 hrs by MTT assay; type: toxicity, cell-based; conditions: CHL cells
Cedecea davisae = assay: Antibacterial activity against clinical isolate Cedecea davisae 1813 assessed as reduction in microbial growth incubated for 24 hrs by broth microdilution method; type: functional
[7] = test system: Staphylococcus epidermidis; assay: Antibacterial activity against clinical isolate Staphylococcus epidermidis NKC 37/1 assessed as reduction in microbial growth incubated for 24 hrs by broth microdilution method; type: functional
Pseudomonas aeruginosa [8] = assay: Antibacterial activity against clinical isolate Pseudomonas aeruginosa NKC 17 assessed as reduction in microbial growth incubated for 24 hrs by broth microdilution method; type: functional
Staphylococcus aureus [9] = assay: Antibacterial activity against clinical isolate Staphylococcus aureus 1812 assessed as reduction in microbial growth incubated for 24 hrs by broth microdilution method; type: functional
[10] = test system: Staphylococcus auricularis; assay: Antibacterial activity against clinical isolate Staphylococcus auricularis NKC 7 assessed as reduction in microbial growth incubated for 24 hrs by broth microdilution method; type: functional
Pseudomonas aeruginosa [11] = assay: Antibacterial activity against Pseudomonas aeruginosa ATCC 27853 assessed as reduction in microbial growth incubated for 24 hrs by broth microdilution method; type: functional
Klebsiella aerogenes = assay: Antibacterial activity against clinical isolate Enterobacter aerogenes NKC 8 assessed as reduction in microbial growth incubated for 24 hrs by broth microdilution method; type: functional
Staphylococcus aureus [12] = assay: Antibacterial activity against clinical isolate Staphylococcus aureus 4721 assessed as reduction in microbial growth incubated for 24 hrs by broth microdilution method; type: functional
Bacillus subtilis = assay: Antibacterial activity against Bacillus subtilis 168 assessed as reduction in microbial growth incubated for 24 hrs by broth microdilution method; type: functional
Salmonella typhimurium = assay: Antibacterial activity against Salmonella typhimurium TA100 assessed as reduction in microbial growth incubated for 24 hrs by broth microdilution method; type: functional, Salmonella enterica subsp. enterica serovar Typhimurium; conditions: Salmonella enterica
Escherichia coli [13] = assay: Antibacterial activity against clinical isolate Escherichia coli NKC 1 assessed as reduction in microbial growth incubated for 24 hrs by broth microdilution method; type: functional
Staphylococcus aureus [14] = assay: Antibacterial activity against methicillin sensitive Staphylococcus aureus ATCC 29213 assessed as reduction in microbial growth incubated for 24 hrs by broth microdilution method; type: functional
[15] = Cytotoxicity against human HSF assessed as reduction in cell viability incubated for 72 hrs by MTT assay; type: toxicity, cell-based; conditions: HSF cells
[16] = test system: Staphylococcus haemolyticus; assay: Antibacterial activity against clinical isolate Staphylococcus haemolyticus 1464 assessed as reduction in microbial growth incubated for 24 hrs by broth microdilution method; type: functional
Klebsiella pneumoniae = assay: Antibacterial activity against clinical isolate Klebsiella pneumoniae 1678 assessed as reduction in microbial growth incubated for 24 hrs by broth microdilution method; type: functional

SMILES	CC50 at 72 h [1] [µg/mL]	MIC (Escherichia coli [2]) [µg/mL]	MIC (Enterococcus faecalis) [µg/mL]	MIC [3] [µg/mL]	MIC [4] [µg/mL]	MIC (Staphylococcus aureus [5]) [µg/mL]	MIC (Micrococcus luteus) [µg/mL]	CC50 at 72 h [6] [µg/mL]	MIC (Cedecea davisae) [µg/mL]	MIC [7] [µg/mL]	MIC (Pseudomonas aeruginosa [8]) [µg/mL]	MIC (Staphylococcus aureus [9]) [µg/mL]	MIC [10] [µg/mL]	MIC (Pseudomonas aeruginosa [11]) [µg/mL]	MIC (Klebsiella aerogenes) [µg/mL]	MIC (Staphylococcus aureus [12]) [µg/mL]	MIC (Bacillus subtilis) [µg/mL]	MIC (Salmonella typhimurium) [µg/mL]	MIC (Escherichia coli [13]) [µg/mL]	MIC (Staphylococcus aureus [14]) [µg/mL]	also measured
COc1c(N2C[C@@H]3CCCN(Cc4c(CO)nc(C)c(O)c4CO)[C@@H]3C2)c(F)cc2c(=O)c(C(=O)O)cn(C3CC3)c12.Cl	20.6	2	4	2	8	8	2	17.6	0.5	0.25	32	0.5	0.06	> 64	8	0.25	2	2	4	2	CC50 at 72 h [15]: 35.2 µg/mL; MIC [16]: 0.25 µg/mL; MIC (Klebsiella pneumoniae): 64 µg/mL
COc1c(N2C[C@@H]3CCCN(Cc4cnc(C)c5c4COCO5)[C@@H]3C2)c(F)cc2c(=O)c(C(=O)O)cn(C3CC3)c12.Cl	9.62	2	1	16	1	0.03	8	2.34	0.03	0.03	> 64	0.06	0.03	64	> 64	0.03	2	2	4	2	CC50 at 72 h [15]: 5.8 µg/mL; MIC [16]: 0.03 µg/mL; MIC (Klebsiella pneumoniae): > 64 µg/mL
CCn1cc(C(=O)O)c(=O)c2cc(F)c(N3CCNC(C)C3)c(F)c21 (stereo not given) [LOMEFLOXACIN]	35.7 (≈ 102 µM)	1	> 64	2	8	1	1	31.3 (≈ 89.1 µM)	0.25	2	1	2	0.06	4	1	1	0.5	1	0.06	0.5	CC50 at 72 h [15]: 46.2 µg/mL (≈ 131 µM); MIC [16]: 0.5 µg/mL; MIC (Klebsiella pneumoniae): 1 µg/mL
Cc1ncc(CN2CCN(c3cc4c(cc3F)c(=O)c(C(=O)O)cn4C3CC3)CC2)c(C)c1O.Cl	25.1	1	16	0.5	16	0.5	0.5	14.2	0.5	0.5	16	1	0.06	32	1	0.5	0.5	1	0.13	0.5	CC50 at 72 h [15]: 27.6 µg/mL; MIC [16]: 0.5 µg/mL; MIC (Klebsiella pneumoniae): 16 µg/mL
Cc1nc(CO)c(CN2CCN(c3cc4c(cc3F)c(=O)c(C(=O)O)cn4C3CC3)CC2)c(CO)c1O.Cl	52.6	64	32	8	16	2	2	31.8	1	1	16	4	0.25	> 64	2	2	4	4	0.5	0.5	CC50 at 72 h [15]: 38 µg/mL; MIC [16]: 4 µg/mL; MIC (Klebsiella pneumoniae): 8 µg/mL
